Columns and labels:
U251MG cells = test: Cell viability assay, ATP quantitation (ADP-Glo); format: cell-based; conditions: Homo sapiens, U-251; 72 h at 37° C.; FIG. 1B
Method: U251MG cells were maintained at 37° C. and 5% CO2 in RPMI media supplemented with glutamax and containing 10% heat-inactivated fetal bovine serum and 1% penicillin/streptomycin (Life Sciences).
A cell counting kit (CCK-8 assay kit, Dojindo) and an ADP-Glo assay (Life Technologies) were used to quantitate the effects of test compounds on cell viability. U251MG cells were seeded into 96 well tissue culture plates and incubated for 16 h at 37° C. with 5% CO2. Increasing concentrations of test compounds were added to the wells from DMSO-containing stock solutions to a final DMSO concentration of 0.05% and incubated for 72 hr at 37° C. CCK-8 kit reagent or ADP-GLO reagent were then added to the wells and absorbance was measured at 450 nm (for the CCK assay) using a Synergy HT micro-titer plate reader (Biotek) or luminescence was measured (for the ADP-GLO assay) using a POLARstar Omega micro-titer plate reader (BMG).

HEI193 cells = test: TMRE assay, HEI193 cell mitochondrial integrity; format: cell-based, human; conditions: observed as early as 2 hours after treatment
Method: (§1) Mitochondrial integrity was evaluated using Tetramethylrhodamine ethyl ester (TMRE) assay. A TMRE assay kit (Abcam) was used to evaluate Hsp90/TRAP1 inhibitor-induced changes in mitochondrial membrane potential. […] TMRE (200 nM) was then added to wells for 30 min and monitored for changes in fluorescence activity using a fluorescence plate reader (ex544/em 590) after washing the cells. Specific TMRE fluorescence was calculated by comparison to matched wells pretreated with the depolarizing proton ionophore carbonyl cyanide 4-(trifluoromethoxy)phenylhydrazone (FCCP) at 20 uM 10 min prior to addition of TMRE. For mitochondria assays, mitochondria was isolated using a kit from Thermoscientific and loaded with 0.1 mM TMRE. TMRE-loaded mitochondria (2 μg per well) were incubated with test compounds and monitored kinetically at 30° C. for changes in fluorescence using a flurorescence plate reader (ex 544/em 590) (FIGS. 6A, 9A and 12).

[1] = tested on: mitochondria isolated from HEI193 cells; test: Analysis of drug accumulation in the mitochondria; format: in vitro ADME, human; conditions: 20 uM
Method: Mitochondria (100 μg) isolated from MDA-MB-231 and […] tumor cell lines were incubated with 20 μM CAP01088 for 30 mins at 30° C. in mitochondrial incubation buffer (MIB: 0.2M sucrose, 10 mM Tris-MOPS, pH 7.4, 5 mM succinaye, 1 mM Pi, 2 μM rotenone, and 10 μM EGTA with modifications as needed). The mitochondria were chilled on ice and collected by centrifugation at 8000 g for 10 min. The supernatant was collected and the mitochondrial pellet was washed twice with MIB and dissolved in lysis buffer (acetonitrile/methanol, 3:1). The concentration of CAP01088 in supernatant and mitochondrial extract was analyzed using a Waters HPLC/Mass spectrometer (FIGS. 6B and 9B).

GBM43 = test: Cellular efficacy in Mayo Clinic GBM PDX cell line GBM43; format: cell-based
Method: (§2) Short-term explant cultures from PDX models were seeded into 96-well Perfecta3D hanging drop plates to form a single spheroid in each well after 2 days. The spheroids were transferred to a round bottom 96 well plate by centrifugation and then incubated with graded concentrations of test compound (8 spheroids per compound concentration). Spheroid volumes were monitored every 6 hours over the course of 5 days using the IncuCyte system (Essen BioScience, MI, US) to provide a growth curve akin to a tumor regrowth assay.

MDA-MB-231 cells = test: TMRE assay, MDA-MB-231 cell mitochondrial integrity; format: cell-based; conditions: 2 hours or 4 hours
Method: as §1

GBM39 = test: Cellular efficacy in Mayo Clinic GBM PDX cell line GBM39; format: cell-based
Method: as §2

Structure (SMILES)	IC50 (U251MG cells) [nM]	Effect on TMRE fluorescence in HEI193 cells (HEI193 cells)	Accumulation in isolated mitochondria compared to culture medium [1]	EC50 (GBM43) [nM]	Effect on TMRE fluorescence of MDA-MB-231 cells (MDA-MB-231 cells)	EC50 (GBM39) [nM]
COc1c(C)cnc(CN(CCc2ccccn2)c2cc(Cl)nc(N)n2)c1C [Compound 1, 6-chloro-4-N-[(4-methoxy-3,5-dimethylpyridin-2yl)methyl]-4-N-[2-(pyridine-2-yl)ethyl]pyrimidine-2,4-amine]	2500	–	–	–	–	–
COc1c(C)cnc(CN(CC2(c3ccc(F)cc3)CCOCC2)c2cc(Cl)nc(N)n2)c1C [Compound A, 6-chloro-4-N-{[4-(4-fluorophenyl)oxan-4-yl]methyl}-4-N-[(4-methoxy-3,5-dimethylpyridin-2-yl)methyl]pyrimidine-2,4-diamine]	–	dose-dependent decrease	greater than 6 fold	280	dose-dependent decrease	220

From patent US10189824B2, “Pyrimidine-diamine dual HSP90/TRAP1 inhibitors” (CalAsia Pharmaceuticals, Inc., priority 2014, dated 2019)
